pEC50: −log10 of the molar value.
Columns and labels:
[1] = system: CHP-134 neuroblastoma cells; experiment: Cell viability assay (Guava ViaCount, flow cytometry); assay type: cell-based, human; conditions: for pEC50: Homo sapiens, 24 hrs incubation, read-out: concentration for half-maximal decrease in viability; for pEC50 / induction of apoptosis: CHP-134 cells
Procedure: (§1) Human melanoma SK-MEL 28, neuroblastoma CHP-134, and T-cell leukemia Jurkat cell lines were obtained from ATCC (Manassas, Va.). All cell lines were grown in RPMI 1640 media (UCSF Cell Culture Facility, San Francisco, Calif.), supplemented with 10% heat-inactivated fetal bovine serum (Gemini Bio-Products, West Sacramento, Calif.), non-essential amino acids, 100 units/ml penicillin/streptomycin, 110 μg/ml sodium pyruvate, and 2 mM glutamine (UCSF Cell Culture Facility). Jurkat cells were grown to a concentration of not more than 10^6 cells/ml and adherent SK-MEL 28 and CHP-134 cells to a concentration of not more than 5×10^4 cells/cm^2.
(§2) The effect of inhibitors of PSA de-N-acetylase on the viability of human tumor cell lines in culture was measured using a cell viability assay. Cells were incubated with N-acyl or methanesulfonyl hexosamine derivatives for 24 hours. Jurkat cells were incubated at a concentration of 2×10^5 cells/ml in round-bottom 96-well plates (Falcon), 200 μl/well. Adherent cells were incubated at a concentration of 1×10^5 cells/ml in flat-bottom 96-well plates (Nunc). Plates were then spun at 1,000×g for 5 minutes. SK-MEL 28 cells were release from the plate using a trypsin/EDTA solution (UCSF Cell Culture Facility). CHP-134 cells were released using CDR (Guava Technologies). All cells were resuspended in Guava ViaCount reagent and read on a Guava EasyCyte flow cytometer, using the Guava ViaCount assay (all from Guava Technologies).

[2] = system: Jurkat T-cell leukemia cells; experiment: as above; assay type: cell-based, human; conditions: for pEC50: Homo sapiens, read-out: concentration for half-maximal decrease in viability; for pEC50 / viability of Jurkat cells: 24 hrs incubation; for apoptosis and cell death in Jurkat cells / cell viability of Jurkat cells: 24 hrs, concentration of 10 mM (FIG. 7); for viability of Jurkat cells: concentration in cell culture media varied (FIG. 3, 4, 9)
Procedure: as §1, §2

[3] = system: SK-MEL 28 melanoma cells; experiment: as above; assay type: cell-based, human
Procedure: as §1, §2

[4] = system: Jurkat T-cell leukemia cells; experiment: as above; assay type: cell-based, human; conditions: 96 hrs incubation, increasing concentrations (FIG. 8)
[5] = target: T1, membrane transporters for N-acetyl neuraminic acid (Homo sapiens, UniProt Q9NRA2); conditions: lysosomal membrane transporter; Essentials of Glycobiology 1999; read-out: Michaelis constant, Km, for forming a substrate/transporter complex; cited from earlier work
T1 sequence (Q9NRA2 1-495): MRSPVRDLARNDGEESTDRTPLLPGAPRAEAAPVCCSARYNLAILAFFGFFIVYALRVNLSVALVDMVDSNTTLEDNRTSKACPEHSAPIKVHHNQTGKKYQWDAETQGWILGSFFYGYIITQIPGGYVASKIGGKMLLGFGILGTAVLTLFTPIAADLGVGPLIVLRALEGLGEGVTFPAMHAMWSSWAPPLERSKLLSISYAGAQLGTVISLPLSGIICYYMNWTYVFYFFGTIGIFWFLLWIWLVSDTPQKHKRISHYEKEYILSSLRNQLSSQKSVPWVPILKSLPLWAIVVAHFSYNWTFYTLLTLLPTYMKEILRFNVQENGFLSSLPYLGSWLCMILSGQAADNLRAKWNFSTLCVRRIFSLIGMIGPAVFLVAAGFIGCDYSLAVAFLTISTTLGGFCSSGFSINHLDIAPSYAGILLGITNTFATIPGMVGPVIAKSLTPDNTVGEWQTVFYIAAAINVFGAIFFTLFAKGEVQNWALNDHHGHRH

[6] = system: CHP-134 neuroblastoma cells; experiment: Cell surface expression of N-propionyl PSA (SEAM 18 binding, flow cytometry); assay type: cell-based, human; conditions: CHP-134, 10 mM supplement in media, 24 hours (FIG. 2)
Procedure: (§3) CHP-134, SK-MEL 28 and Jurkat cells were cultured in media containing N-propionyl galactosamine, N-propionyl mannosamine, or N-acetyl mannosamine (10 mM) or no supplement for 24 hours. To measure mAb binding, the cells were released from the plate, pelleted by centrifugation, washed with PBS, and fixed with 1% formaldehyde in PBS. All procedures were performed on ice. Cells were blocked with PBS containing 3% goat serum, then were incubated overnight at 4° C. with one of the following primary antibodies (˜1 μg/ml), diluted in 3% goat serum: irrelevant isotype control mAbs IgG2a or IgG2b (Southern Biotech), SEAM 3 (Granoff et al. J. Immunol. 1998, 160:5028), or SEAM 18 (Granoff et al. J. Immunol. 1998, 160:5028). Cells were then washed and labeled with goat-anti-mouse FITC (1:1000, Jackson Immunoresearch, West Grove, Pa.). Fluorescence was measured on a Guava EasyCyte flow cytometer, using the Guava ExpressPlus assay (Guava Technologies) and the results are expressed as the percent of cells that are positive for mAb binding.

[7] = system: Jurkat T-cell leukemia cells; experiment: as above; assay type: cell-based, human; conditions: 10 mM supplement in media, 24 hours (FIG. 2)
Procedure: as §3

[8] = system: SK-MEL 28 melanoma cells; experiment: as above; assay type: cell-based, human; conditions: SK-MEL 28, 10 mM supplement in media, 24 hours (FIG. 2)
Procedure: as §3

[9] = 96 hrs incubation, increasing concentrations (FIG. 8)
[10] = 24 hours, concentration-dependent (FIG. 4)

In the case of `C=CC(=O)N[C@H]1C(O)O[C@H](CO)[C@H](O)[C@@H]1O` (some centres unmarked) [GalNAcryl, N-Acryl Galactosamine], the pEC50 [1] was 2.52 and the pEC50 ([2]; Jurkat cells) was 2.52.

In the case of `CS(=O)(=O)N[C@H]1C(O)O[C@H](CO)[C@H](O)[C@@H]1O` (some centres unmarked) [GalNMeSul, N-Methyanesulfonyl Galactosamine], the “cell viability of CHP-134 cells” value [1, 9] was “reduced”, the induction of apoptosis [1] was “induce apoptosis” and the “apoptosis and cell death in Jurkat cells” value [2] was “inducing apoptosis and cell death”. For the same molecule, the “cell viability of Jurkat cells” value [2] was “decrease cell viability”, the induction of apoptosis ([2]; Jurkat cells) was “induce apoptosis” and the “cell viability of SK-MEL 28 cells” value [3, 9] was “reduced”. The induction of apoptosis ([3]; SK-MEL 28 cells) was “induce apoptosis” and the “cell viability of Jurkat cells” value [4] was “reduced”.

Work on `O=C(CCl)N[C@@H]1C(O)O[C@H](CO)[C@@H](O)[C@@H]1O` (some centres unmarked) [ManNClAc, N-Chloroacetyl Mannosamine] yielded a pEC50 [1] of roughly 3.00, a pEC50 ([2]; Jurkat cells) of roughly 3.00 and a pEC50 ([3]; Homo sapiens, SK-MEL 28 cells, 24 hrs incubation, read-out: concentration for half-maximal decrease in viability) of roughly 2.10.

With `CS(=O)(=O)N[C@@H]1C(O)O[C@H](CO)[C@@H](O)[C@@H]1O` (some centres unmarked) [ManNMeSul, N-Methyanesulfonyl Mannosamine] the “cell viability of CHP-134 cells” value [1, 9] was “reduced”, the induction of apoptosis [1] was “induce apoptosis” and the “apoptosis and cell death in Jurkat cells” value [2] was “inducing apoptosis and cell death”. The “cell viability of Jurkat cells” value [2] was “decrease cell viability”, the induction of apoptosis ([2]; Jurkat cells) was “induce apoptosis” and the “cell viability of SK-MEL 28 cells” value [3, 9] was “reduced”. The induction of apoptosis ([3]; SK-MEL 28 cells) was “induce apoptosis” and the “cell viability of Jurkat cells” value [4] was “reduced”.

In the case of `CC(=O)N[C@H]1[C@H]([C@H](O)[C@H](O)CO)OC(O)(C(=O)O)C[C@@H]1O` (some centres unmarked) [N-acetyl neuraminic acid], the Km [5] is listed as roughly 500 µM.

For `C=CC(=O)N[C@@H]1C(O)O[C@H](CO)[C@@H](O)[C@@H]1O` (some centres unmarked) [N-acryl mannosamine, N-Acryl Mannosamine], the “cell viability of CHP-134 cells” value [1, 10] was “reducing the cell viability”, the “apoptosis and cell death of Jurkat cells” value ([2]; 24 hours, four concentrations (FIG. 3)) was “inducing apoptosis and cell death” and the “viability of Jurkat cells” value [2] was “reduces the viability”. For the same molecule, the “sensitivity of Jurkat cells to killing relative to the other cell lines” value ([2]; Jurkat vs CHP-134 and SK-MEL 28 (FIG. 4)) was “approximately 10 fold” and the “cell viability of SK-MEL 28 cells” value [3, 10] was “reducing the cell viability”.

In the case of `CCC(=O)N[C@H]1C(O)O[C@H](CO)[C@H](O)[C@@H]1O` (some centres unmarked) [N-propionyl galactosamine], the “percentage of cells positive for SEAM 18 binding” value (from here on “percentage of cells positive”) [6] was “increases”, the “percentage of cells positive” value [7] was “increases” and the “percentage of cells positive” value [8] was “increases”.

With `CCC(=O)N[C@@H]1C(O)O[C@H](CO)[C@@H](O)[C@@H]1O` (some centres unmarked) [N-propionyl mannosamine] the “percentage of cells positive” value [6] was “increases”, the “percentage of cells positive” value [7] was “increases” and the “percentage of cells positive” value [8] was “increases”.

For “Poly alpha (2→8) N-Acryl Neuraminic Acid [N-acryl PSA]”, the “viability of Jurkat cells” value [2] was “reduced viability” and the “concentration required to induce cell death compared with N-acryl mannosamine” value ([2]; Jurkat cells, 24 hrs (FIG. 9)) was “higher”.

From patent US8999954B2, “Inhibitors of polysialic acid de-N-acetylase and methods for using the same” (Childern's Hospital & Research Center at Oakland, priority 2007, dated 2015)
